Measurements: US20080096894A1, “Anti-Bacterial Compounds” (ASTON UNIVERSITY, priority 2005, published 2008)
In brackets after ≈: the same amount, converted by molar mass. Like-named read-outs stand apart in the source and are kept apart here.

Key:
Test in all cases: MIC, agar dilution, multipoint inoculator
S. aureus = format: cell-based, Staphylococcus aureus; details: upper value of MIC reading
How it was run: (§1)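 Minimum inhibitory concentrations come from an agar dilution method using Mueller Hinton medium. Inocula of 10^4 colony forming units per spot were applied with a multipoint inoculator.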

B. bronchiseptica = format: cell-based; details: B. bronchiseptica NCTC 8344, upper value of MIC reading
How it was run: as §1

S. haemolyticus = format: cell-based; details: S. haemolyticus Isolate 1, upper value of MIC reading
How it was run: as §1

S. aboni = format: cell-based; details: S. aboni NCTC 6017; upper value of MIC reading
How it was run: as §1

S. maltophilia = format: cell-based; details: S. maltophilia NCTC 10257, upper value of MIC reading
How it was run: as §1

E. faecalis = format: cell-based; details: upper value of MIC reading
How it was run: as §1

E. cloacae = format: cell-based, Enterobacter cloacae; details: E. cloacae NCTC 11582, upper value of MIC reading
Procedure: (§2) This activity was measured using a multipoint inoculator method as follows. The MIC for each compound was measured using an agar dilution method (Onda, H., et al., Int. J. Antimicrob. Agents. 18, 263 (2001)) (Mueller Hinton agar) by means of a multipoint inoculator delivering 10^4 colony forming units per spot.

P. auriginosa = format: cell-based, Pseudomonas aeruginosa; details: P. auriginosa NCTC 6749, upper value of MIC reading
Procedure: as §2

S. marcesens = format: cell-based, Serratia marcescens; details: S. marcesens 4444, upper value of MIC reading
Procedure: as §2

K. pneumoniae = format: cell-based, Klebsiella pneumoniae; details: K. pneumoniae 327, upper value of MIC reading
Procedure: as §2

E. faecium = format: cell-based, Enterococcus faecium; details: upper value of MIC reading
How it was run: as §1

S. epidemisis = format: cell-based, Staphylococcus epidermidis; details: upper value of MIC reading
How it was run: as §1

MRSA = format: cell-based, methicillin-resistant Staphylococcus aureus; details: for MIC: upper value of MIC reading
How it was run: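 Agar dilution MIC on Mueller Hinton agar, multipoint inoculator delivering 10^4 colony forming units per spot. MRSA values are ranges across ten clinical MRSA strains; S. aureus NCTC 6571 as reference strain.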

E. coli = format: cell-based, Escherichia coli; details: Escherichia coli, 18 h, upper value of MIC reading
Procedure: as §2

## O=[N+]([O-])c1cc(Br)cc(C=NNc2ccccn2)c1O [HDcl]
S. aureus; S. aureus Cowan 1
  MIC: 128 µg/mL (≈ 380 µM)
S. aureus; S. aureus NCTC 6571
  MIC: 128 µg/mL (≈ 380 µM)
S. aureus; S. aureus NCTC 10788
  MIC: 128 µg/mL (≈ 380 µM)
B. bronchiseptica
  MIC: 128 µg/mL (≈ 380 µM)
S. haemolyticus
  MIC: 128 µg/mL (≈ 380 µM)
S. aboni
  MIC: 128 µg/mL (≈ 380 µM)
S. maltophilia
  MIC: 128 µg/mL (≈ 380 µM)
E. faecalis; E. faecalis EBH1
  MIC: 128 µg/mL (≈ 380 µM)
E. faecalis; E. faecalis Isolate 1
  MIC: 128 µg/mL (≈ 380 µM)
E. faecalis; E. faecalis Isolate 2
  MIC: 32 µg/mL (≈ 94.9 µM)
E. faecalis; E. faecalis Isolate 3
  MIC: 16 µg/mL (≈ 47.5 µM)
E. faecalis; E. faecalis Isolate 4
  MIC: 128 µg/mL (≈ 380 µM)
E. faecalis; E. faecalis Isolate 5
  MIC: 128 µg/mL (≈ 380 µM)
E. faecalis; E. faecalis NCTC 5957
  MIC: 128 µg/mL (≈ 380 µM)
E. cloacae
  MIC: 256 µg/mL (≈ 759 µM)
P. auriginosa
  MIC: 128 µg/mL (≈ 380 µM)
S. marcesens
  MIC: 256 µg/mL (≈ 759 µM)
K. pneumoniae
  MIC: 128 µg/mL (≈ 380 µM)
E. faecium; E. faecium ACTCC 10541
  MIC: 128 µg/mL (≈ 380 µM)
E. faecium; E. faecium NCTC 7171
  MIC: 128 µg/mL (≈ 380 µM)
S. epidemisis; S. epidemisis Isolate 1
  MIC: 128 µg/mL (≈ 380 µM)
S. epidemisis; S. epidemisis NCTC 11047
  MIC: 64 µg/mL (≈ 190 µM)
MRSA; MRSA Isolate 1, in µg/mL
  MIC: 128
MRSA; MRSA Isolate 2, in µg/mL
  MIC: 128
MRSA; MRSA Isolate 3, in µg/mL
  MIC: 128
MRSA; MRSA Isolate 4, in µg/mL
  MIC: 128
MRSA; MRSA Isolate 5, in µg/mL
  MIC: 128
MRSA; MRSA Isolate 6, in µg/mL
  MIC: 128
MRSA; MRSA Isolate 7, in µg/mL
  MIC: 128
MRSA; MRSA Isolate 8, in µg/mL
  MIC: 128
MRSA; MRSA Isolate 9, in µg/mL
  MIC: 128
MRSA; MRSA Isolate 10, in µg/mL
  MIC: 128
MRSA; panel of ten MRSA strains (clinical isolates)
  MRSA MIC range: 64 to 128 µg/mL

## Cc1onc(-c2c(F)cccc2Cl)c1C(=O)N[C@@H]1C(=O)N2[C@@H]1SC(C)(C)[C@@H]2C(=O)O [Fluclox., Flucloxacillin, reference compound]
S. aureus; Staphylococcus aureus, 18 h, S. aureus Cowan 1, read-out: MIC
  MIC: 0.05 µg/mL (≈ 0.11 µM)
S. aureus; Staphylococcus aureus, NCTC6571, 18 h, S. aureus NCTC 6571, read-out: MIC
  MIC: 0.05 µg/mL (≈ 0.11 µM)
S. aureus; Staphylococcus aureus, NCTC10788, 18 h, S. aureus NCTC 10788, read-out: MIC
  MIC: 0.05 µg/mL (≈ 0.11 µM)
E. coli; E. coli W3110R+
  MIC: > 16 µg/mL
E. coli; E. coli W3110R−
  MIC: > 16 µg/mL
B. bronchiseptica; Bordetella bronchiseptica, NCTC8344, 18 h, read-out: MIC
  MIC: > 16 µg/mL
S. haemolyticus; Staphylococcus haemolyticus, 18 h, read-out: MIC
  MIC: 0.5 µg/mL (≈ 1.1 µM)
S. aboni
  MIC: 0.05 µg/mL (≈ 0.11 µM)
S. maltophilia; Stenotrophomonas maltophilia, NCTC10257, 18 h, read-out: MIC
  MIC: 16 µg/mL (≈ 35.3 µM)
E. faecalis; Enterococcus faecalis, 18 h, E. faecalis EBH1, read-out: MIC
  MIC: 0.5 µg/mL (≈ 1.1 µM)
E. faecalis; Enterococcus faecalis, 18 h, E. faecalis Isolate 1, read-out: MIC
  MIC: 1 µg/mL (≈ 2.2 µM)
E. faecalis; Enterococcus faecalis, 18 h, E. faecalis Isolate 2, read-out: MIC
  MIC: 0.5 µg/mL (≈ 1.1 µM)
E. faecalis; Enterococcus faecalis, 18 h, E. faecalis Isolate 4, read-out: MIC
  MIC: 1 µg/mL (≈ 2.2 µM)
E. faecalis; Enterococcus faecalis, 18 h, E. faecalis Isolate 5, read-out: MIC
  MIC: 1 µg/mL (≈ 2.2 µM)
E. faecalis; Enterococcus faecalis, NCTC5957, 18 h, E. faecalis NCTC 5957, read-out: MIC
  MIC: 1 µg/mL (≈ 2.2 µM)
E. cloacae; Enterobacter cloacae, NCTC11582, 18 h, read-out: MIC
  MIC: > 16 µg/mL
P. auriginosa; Pseudomonas aeruginosa, NCTC6749, 18 h, read-out: MIC
  MIC: 8 µg/mL (≈ 17.6 µM)
S. marcesens; Serratia marcescens, 18 h, read-out: MIC
  MIC: > 16 µg/mL
K. pneumoniae; Klebsiella pneumoniae, 18 h, read-out: MIC
  MIC: > 16 µg/mL
E. faecium; Enterococcus faecium, 18 h, E. faecium ACTCC 10541, read-out: MIC
  MIC: 1 µg/mL (≈ 2.2 µM)
E. faecium; Enterococcus faecium, NCTC7171, 18 h, E. faecium NCTC 7171, read-out: MIC
  MIC: 1 µg/mL (≈ 2.2 µM)
S. epidemisis; Staphylococcus epidermidis, 18 h, S. epidemisis Isolate 1, read-out: MIC
  MIC: > 16 µg/mL
S. epidemisis; Staphylococcus epidermidis, NCTC11047, 18 h, S. epidemisis NCTC 11047, read-out: MIC
  MIC: 0.05 µg/mL (≈ 0.11 µM)
MRSA; Staphylococcus aureus, 18 h, MRSA Isolate 1, read-out: MIC
  MIC: 0.05 µg/mL (≈ 0.11 µM)
MRSA; Staphylococcus aureus, 18 h, MRSA Isolate 2, read-out: MIC
  MIC: 8 µg/mL (≈ 17.6 µM)
MRSA; Staphylococcus aureus, 18 h, MRSA Isolate 3, read-out: MIC
  MIC: 8 µg/mL (≈ 17.6 µM)
MRSA; Staphylococcus aureus, 18 h, MRSA Isolate 4, read-out: MIC
  MIC: 16 µg/mL (≈ 35.3 µM)
MRSA; Staphylococcus aureus, 18 h, MRSA Isolate 5, read-out: MIC
  MIC: 0.05 µg/mL (≈ 0.11 µM)
MRSA; Staphylococcus aureus, 18 h, MRSA Isolate 6, read-out: MIC
  MIC: 0.25 µg/mL (≈ 0.551 µM)
MRSA; Staphylococcus aureus, 18 h, MRSA Isolate 7, read-out: MIC
  MIC: 0.25 µg/mL (≈ 0.551 µM)
MRSA; Staphylococcus aureus, 18 h, MRSA Isolate 8, read-out: MIC
  MIC: 8 µg/mL (≈ 17.6 µM)
MRSA; Staphylococcus aureus, 18 h, MRSA Isolate 9, read-out: MIC
  MIC: 8 µg/mL (≈ 17.6 µM)
MRSA; Staphylococcus aureus, 18 h, MRSA Isolate 10, read-out: MIC
  MIC: 0.25 µg/mL (≈ 0.551 µM)
